The values that follow come from ChEMBL document CHEMBL1201862, “PubChem BioAssay data set” (2004).

One data set has as its target Cytochrome P450 2C19 (Homo sapiens, UniProt P33261). As to the kind of experiment: Cytochrome panel assay with activity outcomes. Panel member name: p450-cyp2c19 Compounds with AC50 equal or less than 10 uM are considered active. It is filed as functional.
Data set [1] in a line: cytotoxicity toward NIH3T3 fibroblasts, dose response, counter-screen, cell-based, ATP luminescence, mouse fibroblasts (AID 2010).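 Also: cells exposed to compound for about 90 hours before reading.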 It is filed as functional. As to conditions: NIH3T3. In general terms: A counterscreen serves to expose hits that act by an unwanted route or on another target.
Data set [2] is described as follows: inhibitors of intracellular T. cruzi replication, confirmation, NIH3T3 host cells, beta-gal luminescence (AID 2044).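 Also: intracellular parasites grown in NIH/3T3 mouse fibroblasts as host cells; luminescent beta-galactosidase reporter signal from transgenic T. cruzi replicating inside host cells; inhibitors lower the luminescence signal.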 It is filed as functional, cell-based.
For another data set, the target named is T1, Streptokinase A (Streptococcus pyogenes serotype M1, UniProt P10520).
T1 sequence (P10520 whole entry): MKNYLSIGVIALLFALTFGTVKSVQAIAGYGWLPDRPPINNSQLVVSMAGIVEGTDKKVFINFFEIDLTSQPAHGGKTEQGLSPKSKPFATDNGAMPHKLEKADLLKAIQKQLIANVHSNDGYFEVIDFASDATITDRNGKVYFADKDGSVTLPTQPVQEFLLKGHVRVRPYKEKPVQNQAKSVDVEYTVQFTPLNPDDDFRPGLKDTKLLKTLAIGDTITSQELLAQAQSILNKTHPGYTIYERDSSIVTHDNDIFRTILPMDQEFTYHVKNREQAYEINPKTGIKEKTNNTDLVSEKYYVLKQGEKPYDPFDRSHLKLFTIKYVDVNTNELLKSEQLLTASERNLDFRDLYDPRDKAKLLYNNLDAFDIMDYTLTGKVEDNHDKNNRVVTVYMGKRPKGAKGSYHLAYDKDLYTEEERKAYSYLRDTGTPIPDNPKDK
As to the kind of experiment: S. pyogenes streptokinase expression inhibitors, potency, dose response, plasminogen activation absorbance, OD405 (AID 1914).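 Also: secreted streptokinase activity via plasminogen activation per viability signal from cell pellet.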 The data set is classed as functional, Streptococcus pyogenes M1 GAS.

A further data set deals with Cytochrome P450 2C9 (Homo sapiens, UniProt P11712).
A further data set has as its system Streptococcus. As to the kind of experiment: Group A Streptococcus viability loss, dose response, counter-screen for streptokinase expression inhibitor project, luminescence, BacTiterGlo (AID 1915).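 Also: potency for reduction of bacterial viability or growth.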 The data set is classed as functional, organism-based.
The test system of data set [3] is Streptococcus sp. 'group A'. As to the kind of experiment: growth inhibition of control SK(-) GAS strain, dose response, counter-screen for streptokinase expression inhibitor project, luminescence, kanamycin, BacTiterGlo, confirmation (AID 1900). It is filed as functional, organism-based.
The target of a further data set is Cytochrome P450 3A4 (Homo sapiens, UniProt P08684).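 Also: CYP3A4 tested as one member of a cytochrome P450 panel screen.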
Data set [4] addresses T2, Corticotropin-releasing factor receptor 2/Corticotropin-releasing factor-binding protein (Homo sapiens, UniProt P24387+Q13324).
T2 sequence (Q13324 whole entry): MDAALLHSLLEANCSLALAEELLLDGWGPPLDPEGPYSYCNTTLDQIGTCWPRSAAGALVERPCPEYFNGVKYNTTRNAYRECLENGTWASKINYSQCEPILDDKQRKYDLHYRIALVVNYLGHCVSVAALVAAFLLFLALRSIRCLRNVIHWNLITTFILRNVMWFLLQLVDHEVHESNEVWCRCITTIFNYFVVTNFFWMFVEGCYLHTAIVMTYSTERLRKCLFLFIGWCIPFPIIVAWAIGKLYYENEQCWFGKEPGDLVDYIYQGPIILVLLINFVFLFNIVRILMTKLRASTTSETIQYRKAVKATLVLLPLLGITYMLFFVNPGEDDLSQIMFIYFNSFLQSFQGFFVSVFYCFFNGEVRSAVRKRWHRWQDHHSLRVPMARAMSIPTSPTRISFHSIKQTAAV
T2 sequence (P24387 whole entry): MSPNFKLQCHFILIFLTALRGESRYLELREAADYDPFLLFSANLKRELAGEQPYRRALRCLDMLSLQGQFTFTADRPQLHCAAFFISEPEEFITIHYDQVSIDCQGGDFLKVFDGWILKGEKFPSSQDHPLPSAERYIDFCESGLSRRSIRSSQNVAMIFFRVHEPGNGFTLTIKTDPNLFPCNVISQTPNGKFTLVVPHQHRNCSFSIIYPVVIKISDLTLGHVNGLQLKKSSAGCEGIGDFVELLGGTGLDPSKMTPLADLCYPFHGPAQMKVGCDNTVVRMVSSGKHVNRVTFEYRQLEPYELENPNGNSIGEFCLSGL
As to the kind of experiment: activators of CRF receptor 2 with binding protein – uHTS hits, confirmation (AID 602473). To be noted: read-out: EC50_Mean. The data set is classed as functional.

Activity calls are given as the source filed them.

Chain of Cytochrome P450 3A4 (P08684 whole entry): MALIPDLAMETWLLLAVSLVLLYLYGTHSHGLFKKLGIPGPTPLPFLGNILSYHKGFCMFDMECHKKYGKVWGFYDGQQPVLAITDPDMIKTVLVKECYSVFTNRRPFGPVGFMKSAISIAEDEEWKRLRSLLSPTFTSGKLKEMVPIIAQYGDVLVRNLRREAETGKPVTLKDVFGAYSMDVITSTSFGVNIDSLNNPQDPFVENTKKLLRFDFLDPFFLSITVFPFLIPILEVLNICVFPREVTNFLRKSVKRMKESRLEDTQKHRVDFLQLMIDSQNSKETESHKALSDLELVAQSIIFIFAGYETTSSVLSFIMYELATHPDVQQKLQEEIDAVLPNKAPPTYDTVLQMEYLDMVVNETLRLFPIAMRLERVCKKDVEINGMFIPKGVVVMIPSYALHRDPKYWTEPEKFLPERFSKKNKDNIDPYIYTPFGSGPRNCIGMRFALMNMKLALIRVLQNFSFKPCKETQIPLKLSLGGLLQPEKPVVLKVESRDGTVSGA
Chain of Cytochrome P450 2C9 (P11712 whole entry): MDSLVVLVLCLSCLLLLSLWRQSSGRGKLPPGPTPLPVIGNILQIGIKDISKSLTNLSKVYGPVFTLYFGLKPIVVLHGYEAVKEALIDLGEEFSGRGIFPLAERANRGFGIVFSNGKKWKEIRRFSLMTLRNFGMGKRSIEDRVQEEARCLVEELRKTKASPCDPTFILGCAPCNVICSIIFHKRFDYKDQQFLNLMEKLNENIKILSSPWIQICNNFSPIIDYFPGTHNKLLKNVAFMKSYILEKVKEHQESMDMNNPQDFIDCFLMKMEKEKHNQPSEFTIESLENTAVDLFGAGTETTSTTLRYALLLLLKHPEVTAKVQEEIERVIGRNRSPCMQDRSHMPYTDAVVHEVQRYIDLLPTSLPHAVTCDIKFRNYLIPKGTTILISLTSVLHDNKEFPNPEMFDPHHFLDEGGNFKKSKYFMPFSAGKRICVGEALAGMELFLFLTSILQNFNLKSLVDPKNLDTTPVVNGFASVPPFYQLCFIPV
Chain of Cytochrome P450 2C19 (P33261 whole entry): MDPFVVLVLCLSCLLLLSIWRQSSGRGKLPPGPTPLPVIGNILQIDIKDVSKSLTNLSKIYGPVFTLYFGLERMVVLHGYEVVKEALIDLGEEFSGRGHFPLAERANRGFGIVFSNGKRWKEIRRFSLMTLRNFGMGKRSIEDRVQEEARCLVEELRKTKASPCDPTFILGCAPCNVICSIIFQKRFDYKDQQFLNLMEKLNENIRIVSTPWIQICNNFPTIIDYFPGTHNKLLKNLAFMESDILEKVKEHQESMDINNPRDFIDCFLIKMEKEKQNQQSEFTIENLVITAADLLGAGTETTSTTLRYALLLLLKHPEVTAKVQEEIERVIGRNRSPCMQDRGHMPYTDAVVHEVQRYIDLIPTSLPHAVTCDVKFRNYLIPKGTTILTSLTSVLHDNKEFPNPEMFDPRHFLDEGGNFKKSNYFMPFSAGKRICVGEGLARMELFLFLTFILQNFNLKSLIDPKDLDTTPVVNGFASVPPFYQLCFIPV

What is called AC50 is the midpoint of the concentration-response curve, whichever way the signal moves. Consider `CCCc1nnc(SCC(=O)N2CCCCC2)n1CC1CCCO1` (stereo not drawn), for which, on Cytochrome P450 2C19 (read-out: AC50), the AC50 was 17.8 µM (inconclusive). Still for that read-out and setting: in the case of `COC(=O)C1(C)C=C2C(=C(c3ccccc3)C(=O)C2C)CN1` (stereo not drawn) it was 39.8 µM (inconclusive). Take `COc1ccc(C(CNC(=O)c2oc3ccc(Br)cc3c2C)N2CCCCC2)cc1` (stereo not drawn): the results for the EC50 in data set [1] and in data set [2] were > 60 µM (not active) and 2.37 µM (active), respectively. As for `Clc1ccc(-c2n[nH]c3c2CCC3)c(Cl)c1`, the EC50 at Streptokinase A is on record as > 150 µM (not active).

Consider `CC[C@@H](CO)Nc1nc(NCc2ccccc2)c2ncn(C(C)C)c2n1` [(S)-ROSCOVITINE], for which the AC50 at Cytochrome P450 2C9 is 0.316 µM (inconclusive).

Consider `CN(C)c1ccc(-c2cncnc2NCCc2cnc[nH]2)cc1`, for which, on Cytochrome P450 2C9, the AC50 was 0.501 µM (inconclusive).

`CN(c1ccccc1)S(=O)(=O)c1ccc(C(=O)Nc2ccncc2)cc1`: the EC50 in data set [1] was > 60 µM (not active); in data set [2] it was 1.18 µM (active). `COC(=O)c1cc(C(=O)Nc2nc3ccccc3[nH]2)cc([N+](=O)[O-])c1`: the figures for the EC50 (at Streptokinase A; with Streptococcus; in data set [3]) were > 150 µM (not active), > 150 µM (not active) and 3.94 µM (active), respectively. As for `COc1ccc(C(=O)N2CCC[C@@]3(CCN(c4ccccc4)C3)C2)cc1`, the AC50 on Cytochrome P450 3A4 is 7.94 µM (inconclusive). As to `CC[C@@H](c1ccccc1)n1c(=O)n2n(c1=O)[C@H]1[C@H](O)[C@H]3O[C@@H]3/C(=N/OCc3ccccc3)[C@@H]1CC2`, the AC50 at Cytochrome P450 3A4 was 5.01 µM (inconclusive).

For the molecule `CC(=O)Nc1c(C)nn(-c2ccc(C)c(C)c2)c1C`, the AC50 at Cytochrome P450 2C19 (read-out: AC50) was 39.8 µM (inconclusive). Take `Cc1cc(Cl)ccc1N=C(S)NCCC(c1ccccc1)c1ccccc1`: the EC50 is 30.3 µM (active) in the data set with Streptococcus and 5.18 µM (active) in data set [3]. Regarding `COc1ccc(Nc2nnc(-c3ccc(O)cc3)c3ccccc23)cc1`, the values for the EC50 in data set [1] and in data set [2] were > 60 µM (not active) and 3.48 µM (active), respectively. With `CCCCC(=O)NC(=S)NNC(=O)CCc1ccccc1`, the values for the EC50 (in data set [4]; in the data set with Streptococcus; in data set [3]) were 4.32 µM (active), 8.5 µM (active) and 3.35 µM (active), respectively. Regarding `O=C(NNc1nc(-c2ccc(F)cc2)cs1)c1ccccc1`, the EC50 was > 150 µM (not active) on Streptokinase A, > 150 µM (not active) in the data set on Streptococcus and 0.831 µM (active) in [3]. Take `CCOc1ccc(NS(=O)(=O)c2ccc(C(=O)N3CC(C)OC(C)C3)cc2)cc1` (stereo not drawn): the EC50 in data set [4] was 7.94 µM (active). Take `Cn1cccc1CC(=O)NNC(=S)NC(=O)c1ccccc1Br`: the values for the EC50 (on Streptokinase A; with Streptococcus; in data set [3]) were > 150 µM (not active), 137 µM (active) and 5.95 µM (active), respectively. `CCN(CC)c1nc(-c2ccccc2)ncc1S(=O)(=O)c1ccc(C)cc1`: the EC50 in data set [1] was > 60 µM (not active); in [2] it was 2.65 µM (active). On the same counts, the results for `Cc1c(C)c(C)c2[nH]c(-c3ccc4c(c3)OCO4)nc2c1C` are > 30 µM (not active) and 1.45 µM (active). Consider `COc1ccc(C(=O)N2CCC3(CCCN(c4ccccn4)C3)CC2)cc1`, for which the half-maximal activity concentration (AC50) at Cytochrome P450 2C19 (read-out: AC50) was 25.1 µM (inconclusive). Consider `CCOc1cc(CNc2ccc3c(c2)CCC3)ccc1OC`, for which the EC50 (at Streptokinase A; in the data set with Streptococcus; in data set [3]) was > 150 µM (not active) in each case. Consider `COc1ccc(-c2nc3cnc(Nc4cccc(OC)c4)nc3n(C[C@H]3CCCO3)c2=O)cc1`, for which the AC50 on Cytochrome P450 3A4 was 5.01 µM (inconclusive). `CCC/C=C(\CCC)C(NS(=O)(=O)c1ccc(C(F)(F)F)cc1)c1ccc(C(=O)OC)cc1` (stereo not drawn): the AC50 at Cytochrome P450 3A4 was 1 µM (inconclusive). For `NC(=O)c1csc(-c2ccc(CO)o2)n1`, the AC50 result at Cytochrome P450 2C19 was “inconclusive”. On to `O=c1c(CCc2ccccc2)nc2cnc(Oc3ccccc3)nc2n1C1CC1`, for which, at Cytochrome P450 3A4, the AC50 was 15.8 µM (inconclusive). Consider `CC(C)NC(=O)N(C)C[C@H]1OCc2cnnn2CCCC(=O)N([C@H](C)CO)C[C@H]1C`, for which, in data set [4], the EC50 is > 53 µM (inactive). In the case of `CCNc1nc(NCC)nc(-n2nc(C)cc2C)n1`, the EC50 is > 150 µM (not active) at Streptokinase A, > 150 µM (not active) in the data set on Streptococcus and 17.2 µM (active) in [3]. On to `CCCCNC1=N/C(=C\c2ccco2)C(=O)N1c1ccccc1`, for which the results for the AC50 on Cytochrome P450 2C19 (read-out: AC50) and on Cytochrome P450 2C9 were 39.8 µM (inconclusive) and 4.47 µM (inconclusive), respectively. With `O=S(=O)(c1ccccc1)N1CCC2(CCN(c3ccc(-c4ccccc4)cc3)CC2)CC1`, on Cytochrome P450 3A4, the AC50 is 20 µM (inconclusive). `CC(C)c1csc(CN2CCC(CO)(Cc3cccc(F)c3)CC2)n1`: the EC50 in data set [1] was > 60 µM (not active); in data set [2], 1.09 µM (active). For the molecule `O=C(c1ccco1)N1CCN(C(=O)c2nn3cccnc3c2Cl)CC1`, the half-maximal activity concentration (AC50) entry at Cytochrome P450 2C19 is given as “inconclusive”. Consider `CCC1CCCCN1c1nc(-c2ccncc2)nc2ccccc12` (stereo not drawn), for which the EC50 is 6.4 µM (active) in data set [1] and 0.521 µM (active) in data set [2]. Take `COC(=O)[C@@]1(Cc2ccc(OC)cc2)[C@H]2c3cc(C(=O)N4CCCC4)n(CCn4cc([N+](=O)[O-])nc4C)c3C[C@H]2CN1C(=O)c1ccccc1`: the AC50 at Cytochrome P450 2C9 was 31.6 µM (inconclusive). On to `CC1(C)CC(O)CC(C)(C)N1CC(O)COCCOc1ccc(Br)cc1` (stereo not drawn), for which the AC50 result at Cytochrome P450 2C19 is given as “inconclusive”. For the molecule `O=C(O)CC[C@@H](NC(=O)c1ccccc1C(=O)O)C(=O)O`, the half-maximal activity concentration (AC50) at Cytochrome P450 2C19 (read-out: AC50) was 0.0251 µM (inconclusive).

With `Cc1ccccc1C(=O)Nc1ccc(C(=O)NNC(=O)CCCOc2ccc(Cl)cc2Cl)cc1`, the AC50 at Cytochrome P450 2C19 (read-out: AC50) is 17.8 µM (inconclusive).

Regarding `Cc1cccc(CNc2ncnc3ccc(-c4c(C)noc4C)cc23)c1`, the AC50 at Cytochrome P450 2C9 was 1 µM (inconclusive). For the molecule `CCCCNC(=O)NS(=O)(=O)c1ccc(C(=O)OC(C)C)o1`, the AC50 on Cytochrome P450 2C19 (read-out: AC50) is 39.8 µM (inconclusive). For the molecule `CCNC(=S)N/N=C/c1cccc(OCc2c(F)cccc2Cl)c1`, the EC50 in data set [1] was > 30 µM (not active); in data set [2], 1.15 µM (active). As for `CC(=O)c1cccc(NC(=O)c2csc(-n3nc(C)cc3C(F)(F)F)n2)c1`, the AC50 on Cytochrome P450 2C19 (read-out: AC50) was 7.94 µM (inconclusive); on Cytochrome P450 2C9, 1 µM (inconclusive). In the case of `Clc1ccc(-c2[nH]nc3c2CCC3)c(Cl)c1`, the EC50 with Streptococcus was > 150 µM (not active); in data set [3], 16.8 µM (active). Turning to `CCOC(=O)c1nn(-c2ccccc2Cl)c(=O)cc1OCC(=O)Nc1cccc(OC)c1`, the EC50 at Streptokinase A was > 150 µM (not active); with Streptococcus, > 150 µM (not active); in [3], 31.2 µM (active). `C[C@]12C=CC(=O)C=C1CC[C@@H]1[C@H]3C[C@@H](O)[C@](O)(C(=O)CO)[C@@]3(C)C[C@H](O)[C@]12F`: the half-maximal activity concentration (AC50) at Cytochrome P450 2C9 is 15.8 µM (inconclusive).

On to `CCCc1nc2ccccc2c(=O)n1NC(=O)c1c(O)c2cccc3c2n(c1=O)CCC3`, for which the EC50 is > 150 µM (not active) on Streptokinase A, 7.68 µM (active) in the data set on Streptococcus and 3.78 µM (active) in data set [3].

In the case of `C=CC[n+]1c(-c2ccc(C)cc2)csc1Nc1c(C)n(C)n(-c2ccccc2)c1=O`, the EC50 in data set [1] was > 60 µM (not active); in data set [2], 4.99 µM (active). With `CCC(c1nnnn1C(C)(C)C)N(Cc1cccs1)Cc1cc2cc(C)c(C)cc2n2nnnc12` (stereo not drawn), the EC50 in [1] is > 60 µM (not active); in data set [2], 1.02 µM (active). On the same counts, the results for `CCN1CCCc2cc(CN(CCN3CCOCC3)C(S)=Nc3ccc(OC)c(Cl)c3)ccc21` are > 60 µM (not active) and 1.63 µM (active).
